From patent US20250154145A1, “OXER1 ANTAGONISTS AND USES THEREOF” (Fairhaven Pharmaceuticals Ins., priority 2021, published 2025)

Tested on: neutrophils
Assay: Neutrophil calcium flux assay (5-OXO-ETE-stimulated, Indo-1 fluorescence)
Assay type: cell-based
Details: 5-OXO-ETE-stimulated calcium flux
Procedure: After isolation, neutrophils were resuspended in PBS without calcium and Magnesium (PBS −/−) at a concentration of 5×10^6 cells/ml. 2ul of Indo-1 (1 mM) were added per ml of cells. After incubation at 37° C. for 30 minutes, cells were washed twice in PBS −/− and resuspended at 5×10^6 cells/ml in assay buffer (HBSS 1× with calcium and magnesium and […]). In a 96-well Black optical clear bottom plate 100 μL of neutrophil were dispensed to each well. After incubation at 37° C. for 5 minutes, 50 μL of assay buffer or 3× antagonist were added and incubated for 5 min in a Tecan Spark plate reader (Tecan, Morrisville, NC). Baseline was measured for 30 sec (wavelength setup: excitation: 331 nm and emission:410 nm). When baseline is stable, 50p of 5-OXO-ETE at 200 nM (4×) or HBSS was added to appropriate wells. Fluorescence was measured every 5 seconds for 30 cycles. Results are expressed as Net fluorescence (FLU minus Background and injection peak). All data were analyzed using GraphPad Prism version 9 for Windows (GraphPad, San Diego, CA).

Compared with `CC(CC(=O)O)CC(=O)c1c(CCCCCC(O)c2cccc(C(=O)N(C)C)c2)n(C)c2ncc(C#N)cc12` (single isomer, unassigned) [Compound I-316], `CC(CC(=O)O)CC(=O)c1c(CCCCCC(O)c2cccc(C#N)c2)n(C)c2ncc(Cl)cc12` (single isomer, unassigned) [Compound I-308] is lower in IC50: > 300 nM for the first, < 100 nM for the second.

Same assay, conditions: Neutrophil, 5-OXO-ETE-stimulated calcium flux

First: C[C@@H](CC(=O)O)CC(=O)c1c(CCCCOCc2cccc(Cl)c2)n(C)c2cnccc12 [Compound I-406]
Second: C[C@H](CC(=O)O)CC(=O)c1c(CCCCOCc2cccc(Cl)c2)n(C)c2cnccc12 [Compound I-407]
The IC50 of the first is higher: > 300 nM for the first, < 100 nM for the second.

Going from `C[C@H](CC(=O)O)CC(=O)c1c(CCCCOCc2cccc(OC(F)(F)F)c2)n(C)c2cnccc12` [Compound I-408] to `C[C@@H](CC(=O)O)CC(=O)c1c(CCCCOCc2cccc(OC(F)(F)F)c2)n(C)c2ncc(C#N)cc12` [Compound I-390], the IC50 rises from < 100 nM to > 300 nM.

Compared with `CC(=O)N(C)c1cccc(COCCCCc2c(C(=O)CC(C)CC(=O)O)c3cc(C#N)cnc3n2C)c1` (stereo not drawn) [Compound I-299], `CC(CC(=O)O)CC(=O)c1c(CCCCOCc2cccc(F)c2)n(C)c2ncc(C#N)cc12` (stereo not drawn) [Compound I-231] is lower in IC50: 100 to 300 nM for the first, < 100 nM for the second. The second is the more potent here.

Compared with `[2H]C([2H])([2H])n1c(CCCCOCc2ccccc2)c(C(=O)CC(C)CC(=O)O)c2cc(C#N)cnc21` (stereo not drawn) [Compound I-420], `CC(C)[C@H](CC(=O)O)CC(=O)c1c(CCCCOCc2ccccc2)n(C)c2ncc(C#N)cc12` [Compound I-436] is higher in IC50: < 100 nM for the first, > 300 nM for the second. The first is the more potent here.

`Cn1c(CCCCOCc2ccccc2)c(C(=O)N2CC[C@H](C(=O)O)C2)c2cnccc21` [Compound I-441] and `Cn1c(CCCCOCc2cccc(Cl)c2)c(C(=O)N2CC[C@H](C(=O)O)C2)c2cc(C(F)(F)F)cnc21` [Compound I-183] cannot be ordered by IC50: > 300 nM for the first, > 300 nM for the second.

`CC(CC(=O)O)CC(=O)c1c(CCCCS(=O)(=O)Cc2ccccc2)n(C)c2ncc(C#N)cc12` (stereo not drawn) [Compound I-428] and `CC(CC(=O)O)CC(=O)c1c(CCCCSCc2ccccc2)n(C)c2ncc(C#N)cc12` (stereo not drawn) [Compound I-426] cannot be ordered by IC50: > 300 nM for the first, > 300 nM for the second.

`C[C@H](CC(=O)O)CC(=O)c1c(CCCCCCc2cccc(Cl)c2)n(C)c2ncc(Cl)cc12` [Compound I-24] and `C[C@H](CC(N)=O)CC(=O)c1c(CCCCOCc2cccc(Cl)c2)n(C)c2ncc(Cl)cc12` [Compound I-356] cannot be ordered by IC50: > 300 nM for the first, > 300 nM for the second.

`C[C@H](CC(=O)O)CC(=O)c1c(CCCCOCc2cccc(Cl)c2)[nH]c2ccc(Cl)cc12` [Compound I-189] and `CC(CC(=O)O)CC(=O)c1c(COCCOCc2cccc(Cl)c2)n(C)c2ccc(Cl)cc12` (stereo not drawn) [Compound I-65] fall in the same range of IC50: 100 to 300 nM for the first, 100 to 300 nM for the second.

Compared with `COc1cc(COCCCCc2c(C(=O)CC(C)CC(=O)O)c3cc(C#N)cnc3n2C)ccc1F` (stereo not drawn) [Compound I-391], `CC(CC(=O)O)CC(=O)c1c(CCCCOCc2ccc(Cl)cc2)n(C)c2ncc(C#N)cc12` (stereo not drawn) [Compound I-290] is higher in IC50: < 100 nM for the first, 100 to 300 nM for the second. The first is the more potent here.

First: C[C@H](CC(=O)O)CC(=O)c1c(CCCCOCC#CC2CC(F)(F)C2)n(C)c2ccc(Cl)cc12 [Compound I-324]
Second: C[C@H](CC(=O)O)CC(=O)c1c(CCCCCCC#CC2CCC2)n(C)c2ccc(Cl)cc12 [Compound I-113]
The IC50 of the first is lower: < 100 nM for the first, > 300 nM for the second.

First: C[C@@H](CC(=O)O)CC(=O)c1c(CCCCCCC#CC2COC2)n(C)c2ccc(Cl)cc12 [Compound I-333]
Second: CC(CC(=O)O)CC(=O)c1c(CCCCCCC#CCC(F)(F)F)n(C)c2ccc(Cl)cc12 (stereo not drawn) [Compound I-111]
The IC50 of the first is higher: > 300 nM for the first, 100 to 300 nM for the second. The second is the more potent here.

Going from `C[C@H](CC(=O)O)CC(=O)c1c(CCOCCNc2cccc(Cl)c2)n(C)c2ccc(Cl)cc12` [Compound I-142] to `C[C@H](CC(=O)O)CC(=O)c1c(CCOCCNc2cccnc2)n(C)c2ccc(Cl)cc12` [Compound I-137], the IC50 rises from < 100 nM to > 300 nM. The first is the more potent here.

`C[C@@H](CC(=O)NO)CC(=O)c1c(CCCCCCc2cccc(Cl)c2)n(C)c2ccc(Cl)cc12` [Compound I-18] and `Cn1c(CCCCCCc2cccc(Cl)c2)c(C(=O)N2CC(CC(=O)O)C2)c2cc(Cl)ccc21` [Compound I-152] cannot be ordered by IC50: > 300 nM for the first, > 300 nM for the second.

`Cn1c(CCCCCNc2cccc(Cl)c2)c(C(=O)N2CC[C@H](C(=O)O)C2)c2cc(Cl)cnc21` [Compound I-148] and `Cn1c(CCCCCCc2cccc(Cl)c2)c(C(=O)N2CC[C@H](C(=O)O)C2)c2cc(Cl)cnc21` [Compound I-147] cannot be ordered by IC50: > 300 nM for the first, > 300 nM for the second.

First: CC(CC(=O)O)CC(=O)c1c(CCOCCNc2ccccc2)n(C)c2ncc(C#N)cc12 (stereo not drawn) [Compound I-289]
Second: CC(CC(=O)O)CC(=O)c1c(CCOCCNc2cccnc2)n(C)c2ncc(Cl)cc12 (stereo not drawn) [Compound I-139]
The IC50 of the first is lower: 100 to 300 nM for the first, > 300 nM for the second. The first is the more potent here.

Going from `COC(=O)C[C@@H](C)CC(=O)c1c(CCCCOCc2ccccc2)n(C)c2ncc(C#N)cc12` [Compound I-449] to `C[C@H](CC(=O)O)CC(=O)c1c(CCCCOCc2cccc(OC(F)(F)F)c2)n(C)c2ncc(C#N)cc12` [Compound I-389], the IC50 falls from > 300 nM to < 100 nM.

`CC(CN(C)C(=O)c1c(CCCCOCc2cccc(Cl)c2)n(C)c2ncc(C#N)cc12)C(=O)O` (stereo not drawn) [Compound I-244] and `C[C@H](CC(=O)O)NC(=O)c1c(CCCCOCc2cccc(Cl)c2)n(C)c2ncc(C#N)cc12` [Compound I-238] cannot be ordered by IC50: > 300 nM for the first, > 300 nM for the second.

Going from `Cn1c(CCCCOCc2cccc(Cl)c2)c(C(=O)N2CC[C@H](c3nnn[nH]3)C2)c2cc(C(F)(F)F)cnc21` [Compound I-184] to `Cn1c(CCCCCCc2cccc(Cl)c2)c(C(=O)N2CC[C@H](C(=O)O)C2)c2cc(C#N)cnc21` [Compound I-338], the IC50 falls from > 300 nM to < 100 nM. The second is the more potent here.

`Cn1nc(CCCCOCc2cccc(Cl)c2)c(C(=O)N2CC[C@H](C(=O)O)C2)c1-c1cccc(Cl)c1` [Compound I-192] and `Cn1ccc(C(=O)N2CC[C@H](C(=O)O)C2)c1CCCCOCc1cccc(Cl)c1` [Compound I-162] cannot be ordered by IC50: > 300 nM for the first, > 300 nM for the second.

Compared with `C[C@@H](CC(=O)O)CC(=O)c1c(CCCCOCc2cccc(Cl)c2)n(C)c2cnc(Cl)cc12` [Compound I-411], `C[C@H](CC(=O)O)CC(=O)c1c(CCCCOCc2cccc(C#N)c2)n(C)c2cnc(Cl)cc12` [Compound I-404] is lower in IC50: > 300 nM for the first, < 100 nM for the second. The second is the more potent here.

First: COc1cccc(COCCCCc2c(C(=O)CC(C)CC(=O)O)c3cc(Cl)cnc3n2C)c1 (stereo not drawn) [Compound I-403]
Second: C[C@H](CC#N)CC(=O)c1c(CCCCOCc2cccc(Cl)c2)n(C)c2ncc(Cl)cc12 [Compound I-357]
The IC50 of the first is lower: 100 to 300 nM for the first, > 300 nM for the second.

Going from `C[C@H](CC(=O)O)CC(=O)c1c(CCCCc2nc3cc(Cl)ccc3o2)n(C)c2ccc(Cl)cc12` [Compound I-145] to `CC(CC(=O)O)CC(=O)c1c(CCCOCC(F)(F)c2cccc(Cl)c2)n(C)c2ccc(Cl)cc12` (stereo not drawn) [Compound I-430], the IC50 falls from > 300 nM to < 100 nM.

`CC(CC(=O)O)CC(=O)c1c(CCCCOCc2cccc(C#N)c2)n(C)c2c(F)cc(C#N)cc12` (stereo not drawn) [Compound I-414] and `CC(CC(=O)O)CC(=O)c1c(CCCCCC(O)c2ccc(F)cc2)n(C)c2ncc(Cl)cc12` (stereo not drawn) [Compound I-218] cannot be ordered by IC50: > 300 nM for the first, > 300 nM for the second.

First: Cn1c(CCCCCCc2cccc(Cl)c2)c(C(=O)N2CC[C@@H](C(=O)O)C2)c2cc(Cl)ccc21 [Compound I-120]
Second: Cn1c(CCCCCCc2cccc(Cl)c2)c(C(=O)N2CCC[C@@H](C(=O)O)C2)c2cc(Cl)ccc21 [Compound I-156]
The IC50 of the first is lower: 100 to 300 nM for the first, > 300 nM for the second. The first is the more potent here.

With `CC(CC(=O)O)CC(=O)c1c2cc(C#N)cnc2n(C)c1[C@H]1CC[C@H](OCc2cccc(Cl)c2)CC1` (stereo partly drawn) [Compound I-367] the IC50 was > 300 nM.
